From paper PMC12699179, “Investigating Metal and Fluorophore Controlled Intracellular Localization in Noble Metal Thiosemicarbazone Complexes” (Chemistry (Weinheim an Der Bergstrasse, Germany), 2025) come the findings set out here.

A short description of data set [1]: Stability in cell culture medium by UV/Vis spectroscopy. It counts as physicochemical. The note with it: 50 µM, DMEM with 10% fetal bovine serum, over 72 hours. Here is the method: Likewise, the stability of these complexes was shown via UV/Vis spectrophotometry in cell culture medium over 72 hours.^[ [22] ^] The stability of the newly synthesized compounds was investigated similarly. […] However, the absorption profiles remained distinctly different from those of the corresponding free ligands, which was taken as evidence that the Pd(II) metal center remained chelated by the ligand.
Stability in Cell Culture Medium and Water
5 mM stocks of the respective compounds in DMSO were diluted to produce a final concentration of 50 µM in water or Dulbecco's Modified Eagle's Medium (DMEM) containing 10% fetal bovine serum and 1% penicillin + streptomycin , respectively. The stability of the compounds was monitored via UV/Vis spectroscopy by recording the corresponding absorption profiles of the 50 µM solutions and comparing any changes to the profiles over […]

Data set [2] can be described thus: Lipophilicity, n-octanol/PBS distribution (logD7.2). It counts as physicochemical. Conditions: n-octanol/PBS distribution at pH 7.2; mean of three measurements ± SD. The text has this:
Having synthesized and assessed the stabilities of the complexes, we moved on to measure their lipophilicities at pH = 7.2 using the n‐octanol/PBS partition coefficient (Table 1).^[ [33], [34] ^] While the complexes were all highly lipophilic, the BODIPY‐conjugated complexes were more lipophilic than their coumarin analogs. In both sets of conjugates, the logD values followed the trend Pd(II) > Pt(II) > Au(III), with the monocationic Au(III) complexes being the least lipophilic.
7. Lipophilicity (logD7.2)
500 mL aliquots of purified octanol and PBS were thoroughly mixed in a 2 L separatory funnel and left overnight to saturate the two phases. For compound sets 5 and 7, 20 μM standard solutions were prepared in PBS-saturated octanol, respectively. 5 mL standard solutions containing the compound in question were then pipetted into 15 mL centrifuge tubes, and a 5 mL aliquot of the octanol-saturated PBS was added. The resulting samples were shaken for 10 min and allowed to rest overnight for 18 hours. The samples were then centrifuged for 30 min (3000 g, 20 °C), and aliquots of the octanol phase were analyzed via UV -Vis spectroscopy.
Experiments were conducted in triplicate. The concentrations of the compounds in the octanol phase were then quantified with respect to their λmax. […]
where A0 = absorbance of 20 μM compound in PBS-saturated octanol

A further data set concerns HeLa cells. The data set is described as follows: Live-cell confocal microscopy, colocalization with organelle trackers. It counts as cell-based. The note with it: 10 µM, 24 hours, ± standard deviation. The method, then: The subcellular behavior of the compounds was then assessed using a confocal microscope following incubation with HeLa cells (10 µM) for 6 hours and 24 hours, respectively (Figures S56, S57, and 5, 6). Moreover, we performed colocalization experiments with appropriate commercial organelle tracking dyes. As controls, we used the methyl and ethyl esters of 1 and 2, 1‐OMe and 2‐OEt, respectively. […] Moreover, the Pearson Correlation Coefficients (PCC) between 6 and the commercial lysosome tracker (LysoTracker deep red) channel improved over time from 0.63 to 0.81. Additionally, the distribution was distinct from 2‐OEt, corroborating that the Dp44mT scaffold directed the localization of the conjugates. Therefore, attaching BODIPY had no discernible effect on the lysosomal accumulation of Dp44mT.
Figure S55: Excitation (Exc) and emission (Em) spectra of BODIPY conjugates 6 and 7 at 10 µM in water. For (A) 6 and (B) 7a compounds, λex = 502 nm and λem = 519 nm; Slitwidth: […]; Sensitivity: low and medium, respectively. For (C) 7b and (D) 7c, λex = 519 nm and λem = 519 nm; Slitwidth: […]; Sensitivity: medium […]
collected at the appropriate emission wavelengths. […] The corresponding Pearson's Correlation Coefficients (PCCs) were calculated using Fiji (version 1.54f).[7] […]

Consider `CC1=CC(C)=[N+]2C1=Cc1ccc(CCC(=O)NCCc3cccc(C4=[N+]5N=C(N(C)C)[S][Pt-2]5([Cl])[n+]5ccccc54)n3)n1[B-]2(F)F` (stereo not drawn) [Compound 7b], for which the “stability in cell culture medium” value in data set [1] is given as “remained stable”. Also, the “logD 7.2” value in data set [2] is 1.80 ± 0.04. For the same compound, the “Pearson Correlation Coefficient (PCC) with ER Tracker” value in the data set with HeLa cells worked out at 0.51 ± 0.01.
